In patent US8399493B2, “Pyridinone derivatives and their use as positive allosteric modulators of mGluR2-receptors” (Janssen Pharmaceuticals, Inc., priority 2004, dated 2013):
Counter-ions that a name gives are not always drawn.

Going from C[Si](C)(C)c1ccc(-c2ccc(=O)n(Cc3ccccc3)c2)cc1 to Cc1ccc(-c2ccc(=O)n(Cc3ccccc3)c2)cc1 [1-03], the melting point falls from 132 °C to 110 °C.

Going from Cl.Nc1ccc(-c2ccc(=O)n(Cc3ccc(Cl)cc3F)c2)cc1 to COc1ccc(-c2ccc(=O)n(Cc3ccc(F)cc3F)c2)cc1 [4-12], the melting point falls from 266 °C to 109 °C.

First: COc1ccc(-c2ccc(=O)n(Cc3ccc(OC)nc3)c2)cc1 (as salt: HCl) [4-46]
Second: COc1ccc(Cn2cc(-c3ccc(OC)cc3)ccc2=O)cc1 [4-23]
The melting point of the first is higher: 126 °C for the first, 103 °C for the second.

Compared with CCc1ccc(-c2ccc(=O)n(Cc3ccccc3)c2)cc1 [1-04], O=c1ccc(-c2ccc(O)cc2)cn1Cc1ccccc1 [1-13] is higher in melting point: 80 °C for the first, 202 °C for the second.

Compared with CC(C)(C)c1ccc(-c2ccc(=O)n(Cc3ccccc3)c2)cc1 [1-05], CN(C)c1ccc(-c2ccc(=O)n(Cc3ccccc3)c2)cc1 [1-26] is higher in melting point: 145 °C for the first, 153 °C for the second.

First: Cc1ccc(-c2ccc(=O)n(Cc3ccccc3)c2)cc1C [1-06]
Second: COc1ccc(-c2ccc(=O)n(Cc3ccccc3)c2)cc1OC [1-19]
The melting point of the first is lower: 118 °C for the first, 120 °C for the second.

First: O=c1ccc(-c2cc(F)cc(F)c2)cn1Cc1ccccc1 [1-09]
Second: O=c1ccc(-c2ccc(Cl)c(Cl)c2)cn1Cc1ccccc1 [1-12]
The melting point of the first is lower: 98 °C for the first, 134 °C for the second.

Compared with O=c1ccc(-c2cccc(Cl)c2)cn1Cc1ccccc1 [1-10], O=c1ccc(-c2cccc([N+](=O)[O-])c2)cn1Cc1ccccc1 [1-27] is higher in melting point: 120 °C for the first, 149 °C for the second.

Compared with CCCOc1ccc(-c2ccc(=O)n(Cc3ccccc3)c2)cc1 [1-17], CC(C)COc1ccc(-c2ccc(=O)n(Cc3ccccc3)c2)cc1 [1-18] is higher in melting point: 88 °C for the first, 110 °C for the second.

Compared with O=c1ccc(-c2ccc(OC(F)(F)F)cc2)cn1Cc1ccccc1 [1-20], N#Cc1ccc(-c2ccc(=O)n(Cc3ccccc3)c2)cc1 [1-25] is higher in melting point: 115 °C for the first, 131 °C for the second.

First: CC(=O)c1ccc(-c2ccc(=O)n(Cc3ccccc3)c2)cc1 [1-23]
Second: CCOC(=O)c1ccc(-c2ccc(=O)n(Cc3ccccc3)c2)cc1 [1-24]
The melting point of the first is higher: 118 °C for the first, 115 °C for the second.

Compared with COc1ccc(-c2ccc(=O)n(Cc3ccccc3)c2)cn1 [1-29], COc1ccc(-c2ccc(=O)n(Cc3ccc(Cl)cc3)c2)cn1 [2-62] is higher in melting point: 180 to 181 °C for the first, 191 °C for the second.

First: O=c1ccc(-c2ccc3[nH]ccc3c2)cn1Cc1ccccc1 [1-30]
Second: O=c1ccc(-c2ccc3ccccc3c2)cn1Cc1ccccc1 [1-32]
The melting point of the first is lower: 93 °C for the first, 114 °C for the second.

First: O=c1ccc(C2CCCCC2)cn1Cc1ccc(Cl)cc1 [2-01, 1-(4-Chlorobenzyl)-5-cyclohexylpyridin-2(1H)-one]
Second: O=c1ccc(-c2ccoc2)cn1Cc1ccc(Cl)cc1 [2-59]
The melting point of the first is lower: 72 °C for the first, 112 to 114 °C for the second.

Compared with Cc1ccc(-c2ccc(=O)n(Cc3ccc(Cl)cc3)c2)cc1 [2-03], O=c1ccc(-c2ccc(O)cc2)cn1Cc1ccc(Cl)cc1 [2-13] is higher in melting point: 126 to 128 °C for the first, 202 °C for the second.

Going from CC(C)Cc1ccc(-c2ccc(=O)n(Cc3ccc(Cl)cc3)c2)cc1 [2-04] to CC(C)COCc1ccc(-c2ccc(=O)n(Cc3ccc(Cl)cc3)c2)cc1 [2-26], the melting point falls from 115 °C to 91 °C.

Going from CCC(C)c1ccc(-c2ccc(=O)n(Cc3ccc(Cl)cc3)c2)cc1 (centres unmarked) [2-05] to CCSc1ccc(-c2ccc(=O)n(Cc3ccc(Cl)cc3)c2)cc1 [2-53], the melting point rises from 73 °C to 109 °C.

Compared with C=Cc1ccc(-c2ccc(=O)n(Cc3ccc(Cl)cc3)c2)cc1 [2-06], O=c1ccc(-c2ccc(CO)cc2)cn1Cc1ccc(Cl)cc1 [2-14] is higher in melting point: 125 °C for the first, 155 °C for the second.

First: Cc1ccc(-c2ccc(=O)n(Cc3ccc(Cl)cc3)c2)cc1F [2-10]
Second: COc1ccc(-c2ccc(=O)n(Cc3ccc(Cl)cc3)c2)cc1N [2-37]
The melting point of the first is lower: 109 to 112 °C for the first, 175 °C for the second.

Compared with COc1ccc(-c2ccc(=O)n(Cc3ccc(Cl)cc3)c2)c(F)c1 [2-11], COc1cccc(C(O)c2ccc(=O)n(Cc3ccc(Cl)cc3)c2)c1 (centres unmarked) [3-10, 1-(4-Chlorobenzyl)-5-(hydroxy(3-methoxyphenyl)methyl)pyridin-2(1H)-one] is higher in melting point: 89 °C for the first, 120 °C for the second.

Going from CC(C)(O)c1ccc(-c2ccc(=O)n(Cc3ccc(Cl)cc3)c2)cc1 [2-15, 1-(4-Chlorobenzyl)-5-(4-(2-hydroxypropan-2-yl)phenyl)pyridin-2(1H)-one] to CC(=O)c1ccc(-c2ccc(=O)n(Cc3ccc(Cl)cc3)c2)cc1 [2-30], the melting point rises from 157 °C to 162 °C.

Going from O=c1ccc(-c2ccc(CCCO)cc2)cn1Cc1ccc(Cl)cc1 [2-16, 1-(4-Chlorobenzyl)-5-(4-(3-hydroxypropyl)phenyl)pyridin-2(1H)-one] to COC(=O)CCc1ccc(-c2ccc(=O)n(Cc3ccc(Cl)cc3)c2)cc1 [2-36], the melting point falls from 165 °C to 105 °C.

First: CCOc1ccccc1-c1ccc(=O)n(Cc2ccc(Cl)cc2)c1 [2-20]
Second: CCOCc1ccc(-c2ccc(=O)n(Cc3ccc(Cl)cc3)c2)cc1 [2-25, 1-(4-Chlorobenzyl)-5-(4-(ethoxymethyl)phenyl)pyridin-2(1H)-one]
The melting point of the first is higher: 120 to 121 °C for the first, 109 °C for the second.

First: CC(C)Oc1ccc(-c2ccc(=O)n(Cc3ccc(Cl)cc3)c2)cc1 [2-21]
Second: CN(C)c1ccc(-c2ccc(=O)n(Cc3ccc(Cl)cc3)c2)cc1 [2-48]
The melting point of the first is lower: 118 °C for the first, 155 °C for the second.

Going from COCc1ccc(-c2ccc(=O)n(Cc3ccc(Cl)cc3)c2)cc1 [2-24] to COCCOCc1ccc(-c2ccc(=O)n(Cc3ccc(Cl)cc3)c2)cc1 [2-28], the melting point falls from 109 °C to 79 °C.

Going from O=c1ccc(-c2ccc(COCc3ccccc3)cc2)cn1Cc1ccc(Cl)cc1 [2-27] to CC(=O)NCCOCc1ccc(-c2ccc(=O)n(Cc3ccc(Cl)cc3)c2)cc1 [2-42, N-(2-(4-(1-(4-Chlorobenzyl)-6-oxo-1,6-dihydropyridin-3-yl)benzyloxy)ethyl)acetamide], the melting point rises from 101 °C to 152 °C.

First: O=C(O)Cc1ccc(-c2ccc(=O)n(Cc3ccc(Cl)cc3)c2)cc1 [2-31]
Second: CNC(=O)Cc1ccc(-c2ccc(=O)n(Cc3ccc(Cl)cc3)c2)cc1 [2-44, 2-(4-(1-(4-Chlorobenzyl)-1,6-dihydro-6-oxopyridin-3-yl)phenyl)-N-methylacetamide]
The melting point of the first is lower: 180 °C for the first, 183 °C for the second.

First: COC(=O)c1ccc(-c2ccc(=O)n(Cc3ccc(Cl)cc3)c2)cc1 [2-33]
Second: CN(C)C(=O)c1ccc(-c2ccc(=O)n(Cc3ccc(Cl)cc3)c2)cc1 [2-43]
The melting point of the first is lower: 175 °C for the first, 176 °C for the second.

Compared with COCCNc1ccc(-c2ccc(=O)n(Cc3ccc(Cl)cc3)c2)cc1 [2-40], CSc1ccc(-c2ccc(=O)n(Cc3ccc(Cl)cc3)c2)cc1 [2-52] is higher in melting point: 106 °C for the first, 132 °C for the second.

Going from O=c1ccc(-c2ccc(N3CCOCC3)cc2)cn1Cc1ccc(Cl)cc1 [2-41] to O=c1ccc(-c2ccc(N3CCOCC3)nc2)cn1Cc1ccc(Cl)cc1 [2-65], the melting point rises from 126 °C to 154 °C.

Compared with CN(C)C(=O)Cc1ccc(-c2ccc(=O)n(Cc3ccc(Cl)cc3)c2)cc1 [2-45], CN(C)C(=O)CCc1ccc(-c2ccc(=O)n(Cc3ccc(Cl)cc3)c2)cc1 [2-47] is lower in melting point: 161 °C for the first, 104 °C for the second.

Compared with CNC(=O)CCc1ccc(-c2ccc(=O)n(Cc3ccc(Cl)cc3)c2)cc1 [2-46], O=c1ccc(-c2ccc(Cc3nn[nH]n3)cc2)cn1Cc1ccc(Cl)cc1 [2-51, 5-(4-((2H-Tetrazol-5-yl)methyl)phenyl)-1-(4-chlorobenzyl)pyridin-2(1H)-one] is higher in melting point: 197 °C for the first, 231 °C for the second.

First: CS(=O)(=O)c1ccc(-c2ccc(=O)n(Cc3ccc(Cl)cc3)c2)cc1 [2-54]
Second: COc1ccc(-c2ccc(=O)n(Cc3ccc(Cl)cc3)c2)cc1NS(C)(=O)=O [2-56, N-(5-(1-(4-Chlorobenzyl)-6-oxo-1,6-dihydropyridin-3-yl)-2-methoxyphenyl)methanesulfonamide]
The melting point of the first is higher: 199 to 200 °C for the first, 151 °C for the second.

First: O=c1ccc(-c2cnn(Cc3ccccc3)c2)cn1Cc1ccc(Cl)cc1 [2-58]
Second: O=c1ccc(-c2cnc3ccccc3c2)cn1Cc1ccc(Cl)cc1 [2-70]
The melting point of the first is lower: 140 to 144 °C for the first, 165 °C for the second.

First: Cc1ccc(-c2ccc(=O)n(Cc3ccc(Cl)cc3)c2)s1 [2-60]
Second: O=c1ccc(-c2ccc(Cl)nc2)cn1Cc1ccc(Cl)cc1 [2-63]
The melting point of the first is lower: 101 °C for the first, 169 °C for the second.

Compared with CN(C)c1ccc(-c2ccc(=O)n(Cc3ccc(Cl)cc3)c2)cn1 [2-64], COc1ncc(-c2ccc(=O)n(Cc3ccc(Cl)cc3)c2)cn1 [2-66] is higher in melting point: 164 °C for the first, 191 °C for the second.

First: Cn1ccc2cc(-c3ccc(=O)n(Cc4ccc(Cl)cc4)c3)ccc21 [2-68]
Second: O=c1ccc(-c2ccc3cccnc3c2)cn1Cc1ccc(Cl)cc1 [2-71]
The melting point of the first is lower: 144 to 147 °C for the first, 261 °C for the second.

Going from O=c1ccc(-c2ccc3c(c2)CCO3)cn1Cc1ccc(Cl)cc1 [2-69] to O=c1ccc(-c2ccc3nccnc3c2)cn1Cc1ccc(Cl)cc1 [2-72], the melting point rises from 119 °C to 120 °C.

Compared with CN(Cc1ccc(=O)n(Cc2ccc(Cl)cc2)c1)c1ccccc1 [3-07, 1-(4-Chlorobenzyl)-5-((methyl(phenyl)amino)methyl)pyridin-1-2(1H)-one], COc1cccc(C(=O)c2ccc(=O)n(Cc3ccc(Cl)cc3)c2)c1 [3-12, 1-(4-Chlorobenzyl)-5-(3-methoxybenzoyl)pyridin-2(1H)-one] is lower in melting point: 106 °C for the first, 104 °C for the second.

Going from COc1ccc(-c2ccc(=O)n(Cc3ccccc3C)c2)cc1 [4-05] to COc1ccc(-c2ccc(=O)n(Cc3ccccc3Cl)c2)cc1 [4-18], the melting point rises from 122 °C to 125 °C.

Compared with COc1ccc(-c2ccc(=O)n(Cc3ccc(C)cc3)c2)cc1 [4-06], COc1ccc(-c2ccc(=O)n(Cc3ccc(F)cc3)c2)cc1 [4-10] is lower in melting point: 123 to 124 °C for the first, 103 °C for the second.

Compared with COc1ccc(-c2ccc(=O)n(Cc3ccc(C(F)(F)F)cc3)c2)cc1 [4-07], COc1ccc(-c2ccc(=O)n(Cc3cccc(F)c3)c2)cc1 [4-09] is lower in melting point: 131 to 132 °C for the first, 89 °C for the second.

Compared with COc1ccc(-c2ccc(=O)n(Cc3cccc(F)c3F)c2)cc1 [4-13], COc1ccc(-c2ccc(=O)n(Cc3c(F)cc(F)cc3F)c2)cc1 [4-17] is higher in melting point: 71 °C for the first, 112 °C for the second.
